Data published in patent publication US11446342B2, “Composite probiotics and use thereof” (INFINITUS (CHINA) COMPANY LTD., priority 2019, dated 2022).

Key:
[1] = test system: mice having high-fat diet induced metabolic syndrome; test: Liver superoxide dismutase (SOD) in high-fat diet-induced metabolic syndrome; format: in vivo, C57BL/6J mice; details: intragastric daily, high-fat feed; probiotics total 1.0×10^9 CFU/mL
Protocol: (§1) The experimental animals were 48 5-week old SPF grade C57BL/6 male mice, which were purchased from Shanghai Slack Laboratory Animal Center. The high-fat feed was purchased from Nantong Trophic Animal Feed High-tech Co., Ltd. The model group was fed with TP23300 high-fat feed, and the normal control group was fed with TP23302 control feed. After the mice were adaptively feed for 7 days, the experiment started. The animals were given free access to food and water, the temperature was 22±2° C., the humidity was 55±5%, and the illumination was alternately 12 h bright and dark.
(§2) Each group contains 6 mice. The feeding environmental temperature was 20-26° C., the humidity was 40%-70% and the padding was replaced twice a week. In the Bifidobacterium adolescentis CCFM8630, Lactobacillus reuteri CCFM8631, Lactobacillus rhamnosus CCFM1044 and Lactobacillus casei CCFM711 compounding group, the ratio of viable count of Bifidobacterium adolescentis CCFM8630, Lactobacillus reuteri CCFM8631, Lactobacillus rhamnosus CCFM1044 and Lactobacillus casei CCFM711 was 1:1:1:1. Each mouse was administered intragastrically each day with probiotics with a concentration of 1.0×10^9 CFU/mL, which was resuspended in 3% sucrose solution, and the volume by intragastric administration was 0.2 mL, i.e., the total amount of probiotics administered intragastrically to each mouse was 2×10^8 CFU each day. […]

[2] = test system: mice having high-fat diet induced metabolic syndrome; test: Liver glutathione (GSH) in high-fat diet-induced metabolic syndrome; format: in vivo, C57BL/6J mice; details: intragastric daily, high-fat feed; probiotics total 1.0×10^9 CFU/mL
Protocol: as §1, §2

SMILES: CN(CCOc1ccc(CC2SC(=O)NC2=O)cc1)c1ccccn1 (centres unmarked) [RH, rosiglitazone]
- extent of increase of liver SOD activity compared with the HF group [1]: 70.07 U/mg prot
- extent of increase of liver GSH level compared with the HF group [2]: 6.88 μmoL/g prot
